Measurements taken from US20020022617A1, “Methods for increasing nitric oxide synthase activity” (American Home Products Corporation, priority 2000, published 2002).

Tested on: aortic rings of ovariectomized rats
Assay: Basal NO release in isolated aortic rings of treated ovariectomized rats (phenylephrine curves before and after L-NAME)
Format: in vivo, Sprage-Dawley rats
Conditions: for response of vessels to L-NAME after washout: 1 mg/kg/day by gastric gavage, 200 μM L-NAME, vehicle treated group had a significantly smaller response; for response of the vessels compared among intact, estradiol and TSE-424 treated groups / difference from vehicle treated group (basal NO release, separation of curves before and after L-NAME): 1 mg/kg/day; for response of the vessels compared among intact, estradiol and TSE-424 treated groups: all phenylephrine concentrations (except 0.01 μM phenylephrine TSE-424 treated group); for difference from vehicle treated group (basal NO release, separation of curves before and after L-NAME): at the 10 and 100 μM phenylephrine concentrations, p<0.05
Procedure: Sprage-Dawley rats (240-260 grams) were divided into 4 groups: (1) Normal non-ovariectomized (intact); (2) Ovariectomized (ovex) vehicle treated; (3) Ovariectomized 17-β estradiol treated (1 mg/kg/day); and (4) Ovariectomized TSE-424 treated (1 mg/kg/day). All animals were ovariectomized approximately 3 weeks prior to treatment. Each received 1 mg/kg/day of either 17-β estradiol sulfate or TSE-424 suspended in distilled, deionized water with 1% tween-80 by gastric gavage. Vehicle treated animals received an appropriate volume of the vehicle used in the drug treated groups.
Animals were euthanized by CO2 inhalation and exsanguination. Their thoracic aortas were rapidly removed and placed in 37° C. physiological solution with the following composition (mM): NaCl (54.7), KCl (5.0), NaHCO3 (25.0), MgCl2.2H2O (2.5), D-glucose (11.8) and CaCl2 (0.2) gassed with […] for a final pH of 7.4. The advantitia was removed from the outer surface and the vessel was cut into 2-3 mm wide rings. Rings were suspended in at 10 mL tissue bath with one end attached to the bottom of the bath and the other to a force transducer. A resting tension of 1 gram was placed on the rings.
After equilibration, the rings were exposed to increasing concentrations of phenylephrine (10^−8 to 10^−4 M) and the tension recorded. Baths were then rinsed 3 times with fresh buffer. After washout, 200 μM N′-nitro-L-arginine methyl ester hydrochloride (L-NAME) was added to the tissue bath and equilibrated for 30 minutes. The phenylephrine concentration response curve was then repeated.
Contraction amplitudes at each concentration of phenylephrine were normalized to the maximum phenylephrine-induced contraction before the addition of L-NAME and graphed. The amount of basal NO released was proportional to the degree of separation between the 2 curves before and after L-NAME. Statistical differences were at the p<0.05 level of significance using a repeated measures “Test of Effect Slices (SAS)” analysis of variance.

Compound	response of vessels to L-NAME after washout	response of the vessels compared among intact, estradiol and TSE-424 treated groups	difference from vehicle treated group (basal NO release, separation of curves before and after L-NAME)
Cc1c(-c2ccc(O)cc2)n(Cc2ccc(OCCN3CCCCCC3)cc2)c2ccc(O)cc12 [TSE-424, 1-[4-(2-Azepan-1yl-ethoxy)-benzyl]-2-(4-hydroxy-phenyl)-3-methyl-1H-indol-5-ol]	substantial contraction	indistinguishable	significantly different
C[C@]12CC[C@@H]3c4ccc(O)cc4CC[C@H]3[C@@H]1CC[C@@H]2O [estradiol, 17-β estradiol]	substantial contraction	indistinguishable	significantly different
